Measurements from patent US11590133B2, “Methods and compositions for treatment of BRAF mutant cancers” (MEMORIAL SLOAN KETTERING CANCER CENTER, priority 2016, dated 2023).

How the values were obtained:
[1] = tested on: BRAFV600E-mutant lung cancer patient-derived xenografts (PDX); assay: ERK inhibitor monotherapy of lung cancer PDX, tumor growth; assay type: in vivo, mice; settings: SCH984 75 mpk; FIG. 1B
Description: These were established as described^38,39, in accordance with the Memorial Sloan Kettering Cancer Center Institutional Review Board. Informed consent was obtained in all cases. All animal studies were done in accordance with protocols approved by the MSKCC Animal Care and Use Committee. Melanoma models were generated previously40. Patient derived tissue (biopsy or surgical resection) or pleural fluid was used to establish the lung cancer models in Table I. For biopsy or resection specimens, the tumor sample was minced under aseptic conditions, vigorously washed in 1×PBS, passed through a 60-μm filter, centrifuged, and then re-suspended in 500 μL of Matrigel (BD Biosciences) at 4° C. For pleural effusions, the fluid was centrifuged in order to isolate the cellular fraction and washed several times in cold PBS. Cells were then injected subcutaneously in the flanks of NSG mice and monitored for tumor growth. […]
Nu/nu athymic or NSG mice were obtained from the Harlan Laboratories and maintained in compliance with IACUC guidelines. […] Doubling times were calculated by fitting tumor volumes into exponential growth curves and determining their rate constants in Prism. […] Statistically significant differences in rate constants were determined by using the extra-sum-of-squares F test (with p<0.05) embedded in Prism. […]

ERK = settings: cited from earlier work

With `CS[C@@]1(C(=O)Nc2ccc3[nH]nc(-c4ccc(OC(C)C)nc4)c3c2)CCN(CC(=O)N2CC=C(c3ccc(-c4ncn(C)n4)cc3)CC2)C1` [SCH984] as the compound, how does the “PDX tested in which growth was inhibited” value [1] read?
Its value is 3/4.

What about the duration of response [1] of the same compound?
The duration of response was “several weeks”.

And the “effect on ERK kinase activity and ERK phosphorylation by MEK” value (ERK; ATP-competitive inhibitor)?
Its value is “inhibits the kinase activity of ERK and prevents its phosphorylation by MEK”.

What about the “preference for phosphorylation state of ERK” value (ERK) of the same compound?
The value was “preferentially targets unphosphorylated ERK”.
